Measured values taken from patent publication US10668047B2, “Aziridine containing DNA alkylating agents” (priority 2015, dated 2020).
Where two headings read alike, the source gives them in different places.

Key:
[1] = system: H460 non-cell lung cancer human tumor cell line; assay: In vitro human tumor cell line cytotoxicity (proliferation) assay, AlamarBlue; type: cell-based
In short: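 H460 cells (4×10^3/well) attached for 24 h, then were exposed to compound for 2 hours at 37° C. before washout and 70 hrs further growth in fresh medium. Viable cells were measured by AlamarBlue, and IC50 (50% growth inhibition) was determined relative to media-only control.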

[2] = MTD determination, administered daily for 5 days (preliminary studies for the H460 xenograft model); type: in vivo, nude mice (nu/nu); settings: on the basis of weight loss and behavioral signs, female nude mice
Protocol: On the basis of the favorable in vitro data for these compounds, their anti-tumor activities in the H460 (NSCLC) human tumor xenograft model were evaluated. H460 cells (lx 10^6) were subcutaneously implanted in the flanks of pathogen-free homozygous female nude mice (nu/nu, Charles River Laboratories). When tumor size reached 100-150 mm^3, animals were randomized to 10 mice per treatment group. All tested compounds were formulated in 5% DMSO, 5% Tween 80 in D5W. The doses of all the compounds were chosen on the basis of preliminary studies to define the MTD of each compound when administered daily for 5 days. On the basis of weight loss and behavioral signs, the MTDs of TH2565 and TH2566 were determined to be 2 mg/kg, respectively. The comparative tumor volume reductions for certain compounds are graphically illustrated in FIGS. 1A-1C.

[3] = Homo sapiens, NCI-H460, H460 cells, under air, 2 hrs exposure, wash, then 70 hrs growth, read-out: IC50 (air)
[4] = Homo sapiens, NCI-H460, H460 cells, under nitrogen, 2 hrs exposure, wash, then 70 hrs growth, read-out: IC50 (N2)

Structure (SMILES)	IC50 [1, 3]	IC50 [1, 4]	also measured
CC(OP(=O)(N1CC1)N1CC1)c1ccc([N+](=O)[O-])cc1 (single isomer, unassigned) [compound 2566]			IC50 ([1]; read-out: IC50 (N2), H460 cells, under nitrogen, 2 hrs exposure, wash, then 70 hrs growth): 0.1 µM; IC50 ([1]; read-out: IC50 (air), H460 cells, under air, 2 hrs exposure, wash, then 70 hrs growth): 23 µM; MTD [2]: 2 mg/kg
CC(OP(=O)(N1CC1)N1CC1)c1ccc([N+](=O)[O-])cc1 (single isomer, unassigned) [compound 2565]			IC50 ([1]; Homo sapiens, NCI-H460, read-out: IC50 (N2), H460 cells, under nitrogen, 2 hrs exposure, wash, then 70 hrs growth): 0.1 µM; IC50 ([1]; Homo sapiens, NCI-H460, read-out: IC50 (air), H460 cells, under air, 2 hrs exposure, wash, then 70 hrs growth): 18 µM; MTD at 5 days ([2]; nude (nu/nu), mouse, in vivo): 2 mg/kg
Cn1c([N+](=O)[O-])cnc1C(OP(=O)(N1CC1)N1CC1)C(c1ccccc1)c1ccccc1 (centres unmarked) [compound 2640]	83 µM	1.1 µM	
CC(C)C(OP(=O)(N1CC1)N1CC1)c1ncc([N+](=O)[O-])n1C (centres unmarked) [compound 2568]			IC50 ([1]; H460 cells, under air, 2 hrs exposure, wash, then 70 hrs growth, read-out: IC50 (air)): 350 µM; IC50 ([1]; H460 cells, under nitrogen, 2 hrs exposure, wash, then 70 hrs growth, read-out: IC50 (N2)): 0.3 µM
CCCCCCCCN(C)c1cc(C(C)OP(=O)(N2CC2)N2CC2)ccc1[N+](=O)[O-] (centres unmarked) [compound 2735]	3.1 µM	2 µM	
CC(OP(=O)(N1CC1)N1CC1)c1cc(-n2cnc3ccccc32)c([N+](=O)[O-])cc1F (centres unmarked) [compound 2744]	2.7 µM	0.05 µM	
CC(OP(=O)(N1CC1)N1CC1)c1ccc([N+](=O)[O-])c(NS(C)(=O)=O)c1 (centres unmarked) [compound 2726]	19 µM	0.2 µM	
CC(OP(=O)(N1CC1)N1CC1)c1ccc([N+](=O)[O-])c(-c2ccccc2F)c1 (centres unmarked) [compound 2786]	69 µM	2.5 µM	
CC(OP(=O)(N1CC1)N1CC1)c1ccc([N+](=O)[O-])c(-c2cccc(C(F)(F)F)c2)c1 (centres unmarked) [compound 2802]	22 µM	2.8 µM	
COc1ccc(C(C)OP(=O)(N2CC2)N2CC2)c([N+](=O)[O-])c1 (centres unmarked) [compound 2616]	17 µM	3.7 µM	
CC1=NCCN1c1cc(C(C)OP(=O)(N2CC2)N2CC2)ccc1[N+](=O)[O-] (centres unmarked) [compound 2722]	5 µM	0.9 µM	
Cc1cn(-c2cc(C(C)OP(=O)(N3CC3)N3CC3)ccc2[N+](=O)[O-])cn1 (centres unmarked) [compound 2747]	39 µM	0.3 µM	
CC(OP(=O)(N1CC1)N1CC1)c1ccc([N+](=O)[O-])c(-n2ccc3ccccc32)c1 (centres unmarked) [compound 2734]	2.5 µM	1.6 µM	
CC(C)Oc1cc([N+](=O)[O-])ccc1COP(=O)(N1CC1)N1CC1 [compound 2599]	1.5 µM	0.08 µM	
CC(OP(=O)(N1CC1)N1CC1)c1cc(-n2cncn2)c([N+](=O)[O-])cc1F (centres unmarked) [compound 2733]	2.8 µM	0.03 µM	
